Our source for the IC50 values is article PMC9861744, “Polysulfone Membranes Doped with Human Neutrophil Elastase Inhibitors: Assessment of Bioactivity and Biocompatibility” (Membranes, 2023).

This test deals with T1, Human neutrophil elastase (HNE) (Homo sapiens, UniProt P08246).
T1 construct: gene ELANE
T1 sequence (P08246 30-247): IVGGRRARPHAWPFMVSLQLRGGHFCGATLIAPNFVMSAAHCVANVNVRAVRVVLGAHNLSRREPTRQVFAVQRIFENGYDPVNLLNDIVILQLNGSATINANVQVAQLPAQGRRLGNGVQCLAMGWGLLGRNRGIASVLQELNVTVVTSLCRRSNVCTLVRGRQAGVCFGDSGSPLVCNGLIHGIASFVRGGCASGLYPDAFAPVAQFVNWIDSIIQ
As to the kind of experiment: fluorometric HNE activity assay with MeO-Suc-Ala-Ala-Pro-Val-AMC, […] min preincubation, […] °C. The class given is biochemical.

For orientation: IC50 means the midpoint of a concentration-inhibition curve. Read a low IC50 as greater potency. Regarding `CCC1(CC)C(=O)N(c2ccc(C(=O)O)cc2)C1=O` [D4L-2], the IC50 turned out to be 18 nM.
